Experimental data taken from PubChem BioAssay (NCI).
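Growth conditions: 96-well plates. Treatment: test compound, 48 hours, 5 concentrations. Analysis: linear interpolation between bracketing concentrations; unreached endpoints set to highest concentration. GI50 marks 50% less growth. TGI: concentration producing complete growth inhibition.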

Key:
Assay in all cases: NCI-60 cell line screen, 48 h
KM12 colon = tested on: KM12 colon
MOLT-4 leukemia = tested on: MOLT-4 leukemia
SF-268 CNS = tested on: SF-268 CNS
SW-620 colon = tested on: SW-620 colon
OVCAR-4 ovarian = tested on: OVCAR-4 ovarian
CAKI-1 renal = tested on: CAKI-1 renal
NCI-H460 lung = tested on: NCI-H460 lung
HCC-2998 colon = tested on: HCC-2998 colon
NCI-H23 lung = tested on: NCI-H23 lung

Row | Compound | TGI (KM12 colon) | TGI (MOLT-4 leukemia) | TGI (SF-268 CNS) | TGI (SW-620 colon) | TGI (OVCAR-4 ovarian) | TGI (CAKI-1 renal) | TGI (NCI-H460 lung) | TGI (HCC-2998 colon) | TGI (NCI-H23 lung) | GI50 (KM12 colon) | GI50 (MOLT-4 leukemia) | GI50 (SF-268 CNS) | GI50 (SW-620 colon) | GI50 (CAKI-1 renal) | GI50 (NCI-H460 lung) | GI50 (HCC-2998 colon) | GI50 (NCI-H23 lung)
1 | CSC(SC)=C1C(=O)NN=C1C | > 100 µM | > 100 µM | > 100 µM | > 100 µM | > 100 µM | > 100 µM | > 100 µM | > 100 µM | > 100 µM |  |  |  |  |  |  |  | 
2 | CC(CC(=O)CO[C@H]1[C@H](O)[C@@H](O)[C@@H](O)[C@@H]2NC(=O)c3c(cc4c(c3O)OCO4)[C@H]21)OC1OC(CO)C(O)C(O)C1O (stereo partly specified) | 1.77 µM | 3.54 µM | 3.81 µM |  | 1.27 µM | > 100 µM |  | 0.633 µM | 3.07 µM |  |  |  |  |  |  |  | 
3 | CCCCCCCCCCCCCCCC(=O)ON1C(=S)NC(C)(c2ccccc2)C1=S (stereo unspecified) | > 100 µM | > 100 µM | > 100 µM |  | > 100 µM | > 100 µM | > 100 µM | > 100 µM | > 100 µM |  |  |  |  |  |  |  | 
4 | CC(=O)OC1/C(=C/c2ccc([N+](=O)[O-])cc2)C[C@H]2[C@@H]3CC=C4C[C@@H](OC(C)=O)CC[C@]4(C)[C@H]3CC[C@]12C (stereo partly specified) | > 100 µM |  | > 100 µM | > 100 µM | > 100 µM | > 100 µM | > 100 µM | > 100 µM | > 100 µM |  |  |  |  |  |  |  | 
5 | CCOC(=O)C1(Cc2ccccc2)Cc2cc3c(cc2C1)CCC3 | > 100 µM | 58.6 µM | > 100 µM | > 100 µM | 98.4 µM | > 100 µM | > 100 µM | 52.8 µM | > 100 µM |  |  |  |  |  |  |  | 
6 | O/N=c1/ccn(O)c2ccccc12 | 5.25 µM |  | 5.74 µM | 11.8 µM | 4.43 µM | 5.99 µM | 3.67 µM | 0.998 µM | 8.96 µM |  |  |  |  |  |  |  | 
7 | Cc1cc2nc(N3C(=O)/C(=C/c4cccc([N+](=O)[O-])c4)N=C3c3ccccc3)sc2cc1C | > 100 µM | 32.4 µM | > 100 µM | > 100 µM | 96.2 µM | > 100 µM | > 100 µM | 53.7 µM |  |  |  |  |  |  |  |  | 
8 | Cc1ccc(S(=O)(=O)N2CCCSCCSCCCSCC2)cc1 | > 100 µM | > 100 µM | > 100 µM | > 100 µM | > 100 µM |  | > 100 µM | > 100 µM | > 100 µM |  |  |  |  |  |  |  | 
9 | COc1c(Cl)ccc(Cl)c1C(=O)NNC(=O)c1c(Cl)c(Cl)c(Cl)c(Cl)c1-c1nc2ccc(C(=O)c3ccccc3)cc2[nH]1 | > 100 µM | > 100 µM | > 100 µM | > 100 µM | > 100 µM | > 100 µM |  |  | > 100 µM |  |  |  |  |  |  |  | 
10 | CCOC(=O)c1cccc(NC(=O)CBr)c1 | 3.58 µM | 1.29 µM |  | 1.66 µM | 3.73 µM | 1.16 µM | 3.46 µM | 5.28 µM | 2.77 µM |  |  |  |  |  |  |  | 
11 | O=S(=O)(c1cc(Cl)ccc1Cl)N1CCN(c2ccc(Cl)c(Cl)c2)CC1 | > 100 µM | > 100 µM | 85.9 µM | > 100 µM | 32.4 µM | 45.3 µM |  | > 100 µM | > 100 µM |  |  |  |  |  |  |  | 
12 | CC(=O)Oc1ccc(N2C(=O)C3c4[nH]c5ccccc5c4C4CCC(C(C)(C)C)CC4C3C2=O)cc1 (stereo unspecified) |  | 94.2 µM | 11 µM | 5.16 µM |  | 16 µM | 5.83 µM | 5.14 µM | 8.79 µM |  |  |  |  |  |  |  | 
13 | COc1cc([C@@H]2c3cc4c(cc3[C@H](OC3OC5COC(C(C)C)OC5C(O)C3O)C3COC(=O)[C@@H]32)OCO4)cc(OC)c1O (stereo partly specified) | 39.6 µM | > 100 µM | 35 µM | 22.5 µM | 37.6 µM | 19.2 µM | 10.2 µM |  | 15.4 µM |  |  |  |  |  |  |  | 
14 | Cc1cc(C)c(S(=O)(=O)N[C@@H](/C=C(\Br)CO)C(C)C)c(C)c1 | > 100 µM | 75.3 µM | > 100 µM | > 100 µM |  | > 100 µM | 85.4 µM | 53.7 µM | > 100 µM |  |  |  |  |  |  |  | 
15 | Cc1ccc(/C=C2\N=C(N3CCCCC3)NC2=O)cc1 | > 100 µM | > 100 µM | > 100 µM | > 100 µM | > 100 µM | > 100 µM |  | > 100 µM | > 100 µM |  |  |  |  |  |  |  | 
16 | CC(=O)Oc1ccccc1[C@H]1CC(=O)C[C@H](c2ccccc2OC(C)=O)C12C(=O)c1ccccc1C2=O | > 100 µM | > 100 µM |  |  | > 100 µM | > 100 µM | 60.3 µM | 85.4 µM | 90.5 µM |  |  |  |  |  |  |  | 
17 | COC(=O)[C@@H]1C=C[C@@H](C#N)n2c(=O)n(-c3ccccc3)c(=O)n21 | 73.2 µM | 67.1 µM | > 100 µM | > 100 µM | > 100 µM | > 100 µM |  | > 100 µM | > 100 µM |  |  |  |  |  |  |  | 
18 | CC(C)C1CC=NN1C(=O)OC(C)(C)C (stereo unspecified) | > 100 µM | > 100 µM | > 100 µM | > 100 µM |  | > 100 µM | > 100 µM | > 100 µM | > 100 µM |  |  |  |  |  |  |  | 
19 | NS(=O)(=O)c1ccc(NC(=O)c2cc([N+](=O)[O-])cc([N+](=O)[O-])c2)cc1 | > 100 µM | > 100 µM | > 100 µM | > 100 µM | 79.2 µM | > 100 µM | > 100 µM |  | > 100 µM |  |  |  |  |  |  |  | 
20 | O=C(O)CCC(NC(=O)c1ccc(Nc2nc3ccccc3nc2C(=O)O)cc1)C(=O)O (stereo unspecified) | > 100 µM | > 100 µM | > 100 µM |  | > 100 µM | > 100 µM |  | > 100 µM | > 100 µM |  |  |  |  |  |  |  | 
21 | Cc1nc(-c2ccccc2)c(C)n2c1nc1ccccc12 | > 100 µM | > 100 µM | 98.7 µM | > 100 µM | > 100 µM | > 100 µM | 63.3 µM |  | 40.9 µM |  |  |  |  |  |  |  | 
22 | O=C(O)c1cccc(S(=O)(=O)NN2C(=O)CSC2c2ccccc2)c1 (stereo unspecified) | > 100 µM | > 100 µM | > 100 µM | > 100 µM |  | > 100 µM | > 100 µM | > 100 µM | > 100 µM |  |  |  |  |  |  |  | 
23 | COc1cc(C2CC(c3cccc(Nc4ccncc4)c3)=NN2c2cc(Cl)cc(Cl)c2)cc(OC)c1OC (stereo unspecified) | 3.1 µM | 3.57 µM | 3.21 µM | 3.2 µM |  | 2.91 µM | 3.28 µM | 2.98 µM | 3.38 µM | 1.65 µM | 1.53 µM | 1.61 µM | 1.67 µM | 1.53 µM | 1.73 µM | 1.56 µM | 1.79 µM
24 | CC(O)c1c2c(cc3c1CC1(C3)Cc3cc4c(c(C(C)O)c3C1)CCC4)CCC2 (stereo unspecified) | 38.4 µM | 26.3 µM |  |  | 17.5 µM |  |  | 40.2 µM | 40.4 µM |  |  |  |  |  |  |  | 
25 | Cc1ccc(S(=O)(=O)NC(=O)NC(CO)C(=O)O)cc1 (stereo unspecified) | > 100 µM | > 100 µM | > 100 µM | > 100 µM | > 100 µM |  | > 100 µM |  | > 100 µM |  |  |  |  |  |  |  | 
